Source: US7022716B2, “Cyclic amine phenyl beta-3 adrenergic receptor agonists” (Wyeth, priority 2000, dated 2006)

What follows are molecules tested against T1, human β3 adrenergic receptor (Homo sapiens, UniProt P13945) (assay: cAMP (SPA) response in CHO cells transfected with human β3 adrenergic receptor). Settings: maximal response relative to maximal response of isoproterenol at 10^-5 M.
T1 construct: Full length β3 AR clones (402 amino acids) containing the last 6 amino acids of hβ3-AR are prepared; expressed in transfected cells; host or cells: CHO (Chinese hamster ovary) cells
T1 sequence (P13945 whole entry): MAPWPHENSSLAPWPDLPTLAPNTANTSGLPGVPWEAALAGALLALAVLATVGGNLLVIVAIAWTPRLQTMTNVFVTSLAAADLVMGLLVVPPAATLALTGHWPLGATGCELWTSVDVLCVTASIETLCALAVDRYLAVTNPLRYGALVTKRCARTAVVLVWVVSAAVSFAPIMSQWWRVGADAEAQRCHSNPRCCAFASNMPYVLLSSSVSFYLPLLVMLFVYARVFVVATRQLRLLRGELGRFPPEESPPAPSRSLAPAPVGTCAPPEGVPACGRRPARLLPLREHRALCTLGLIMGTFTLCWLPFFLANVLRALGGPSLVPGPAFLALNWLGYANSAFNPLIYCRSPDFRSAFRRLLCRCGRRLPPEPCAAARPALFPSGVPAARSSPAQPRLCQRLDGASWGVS
Assay type: cell-based
Design: key: fraction of maximal isoproterenol (10^-5 M) response
Experimental: Binding to the receptors was measured in Chinese Hamster ovary (CHO) cells that were transfected with adrenergic receptors.
The corresponding primer sequences are described in Mantzoros, C. […] The four fragments are ligated into a pUC 18 plasmid (Gibco-BRL) and sequenced.
CHO cells were grown in 24-well tissue culture plates in Dulbecco's Modified Eagle Media with 10% fetal bovine serum, MEM non-essential amino acids, Penicillin-Streptompycin and Geneticin. On the day of test procedure, growth medium was replaced with preincubation media (Dulbecco's Modified Eagle, Media) and incubated for 30 minutes at 37° C. […] Test compounds were tested over a concentration range of 10^−9 M to 10^−5 M for β3 cells and 10^−8 to 10^−4 M for β1 and β2 transfected cells. Isoproterenol (10^−5 M) was used as an internal standard for comparison of activity. Cells were incubated at 37° C. on a rocker for 30 min with the β3 cells and 15 min for β1 and β2 cells. Incubation was stopped with the addition of 0.2N HCl and neutralized with 2.5N NaOH. The plates, containing the cells and neutralized media, were stored at −20 degrees celsius until ready to test for cAMP using the SPA test kit (Amersham).
Data Analysis and Results: Data collected from the SPA test procedure were analyzed as percent of the maximal isoproterenol response at 10^−5 M. Activity curves were plotted using the SAS statistical and graphics software.

Structure (SMILES) | IA(β3)
CCCCS(=O)(=O)Nc1ccc(N2CCC(NC[C@H](O)COc3cccc4[nH]c(=O)[nH]c34)CC2)cc1 [Example 296, N-{4-[4-({(2S)-2-Hydroxy-3-[(2-oxo-2,3-dihydro-1H-benzimidazol-4-yl)oxy]propyl}amino)-1-piperidinyl]phenyl}-1-butanesulfonamide] | 0.81
CCCCCCCCS(=O)(=O)Nc1ccc(N2CCC(NCC(O)c3ccc(O)c(NS(C)(=O)=O)c3)CC2)cc1 (stereo not drawn) [Example 297, N-(4-{4-[(2-Hydroxy-2-{4-hydroxy-3-[(methylsulfonyl)amino]phenyl}ethyl)amino]-1-piperidinyl}phenyl)-1-octanesulfonamide] | 1
CCCCCCCCS(=O)(=O)Nc1ccc(N2CCC(NC[C@H](O)COc3cccc4[nH]c(=O)[nH]c34)CC2)cc1 [Example 298, N-{4-[4-({(2S)-2-Hydroxy-3-[(2-oxo-2,3-dihydro-1H-benzimidazol-4-yl)oxy]propyl}amino)-1-piperidinyl]phenyl}-1-octanesulfonamide] | 0.78
O=c1[nH]c2cccc(OC[C@@H](O)CNC3CCN(c4ccc(NS(=O)(=O)c5ccc(S(=O)(=O)c6ccc(C(F)(F)F)cn6)s5)cc4)CC3)c2[nH]1 [Example 299] | 1.1
O=S(=O)(Nc1ccc(N2CCC(NC[C@H](O)COc3ccc(O)cc3)CC2)cc1)c1ccc(S(=O)(=O)c2ccc(C(F)(F)F)cn2)s1 [Example 300, N-[4-(4-{[(2S)-2-Hydroxy-3-(4-hydroxyphenoxy)propyl]amino}-1-piperidinyl)phenyl]-5-{[5-(trifluoromethyl)-2-pyridinyl]sulfonyl}-2-thiophenesulfonamide] | 0.78
O=C1NC(=O)C(Cc2ccc(S(=O)(=O)Nc3ccc(N4CCC(NC[C@H](O)COc5cccc6[nH]c(=O)[nH]c56)CC4)cc3)cc2)S1 (stereo partly drawn) [Example 301, 4-[(2,4-Dioxo-1,3-thiazolidin-5-yl)methyl]-N-{4-[4-({(2S)-2-hydroxy-3-[(2-oxo-2,3-dihydro-1H-benzimidazol-4-yl)oxy]propyl}amino)-1-piperidinyl]phenyl}-benzenesulfonamide] | 0.95
CS(=O)(=O)Nc1cc(C(O)CNC2CCN(c3ccc(NS(=O)(=O)c4ccc(CC5SC(=O)NC5=O)cc4)cc3)CC2)ccc1O (stereo not drawn) [Example 302, 4-[(2,4-Dioxo-1,3-thiazolidin-5-yl)methyl]-N-(4-{4-[(2-hydroxy-2-{4-hydroxy-3-[(methylsulfonyl)amino]phenyl}ethyl)amino]-1-piperidinyl}phenyl)benzenesulfonamide] | 0.95
COc1ccc(S(=O)(=O)Nc2ccc(N3CCC(NC[C@H](O)COc4ccc(O)c5c4CCC(=O)N5)CC3)cc2)cc1OC [Example 303, N-{4-[4-({(2S)-2-Hydroxy-3-[(8-hydroxy-2-oxo-1,2,3,4-tetrahydro-5-quinolinyl)oxy]-propyl}amino)-1-piperidinyl]phenyl}-3,4-dimethoxybenzenesulfonamide] | 0.96
CCCCCCCCS(=O)(=O)Nc1ccc(N2CCC(NC[C@H](O)COc3ccc(O)cc3)CC2)cc1 [Example 304, N-[4-(4-{[(2S)-2-Hydroxy-3-(4-hydroxyphenoxy)propyl]amino}-1-piperidinyl)phenyl]-1-octanesulfonamide] | 0.35
CCCCCCNC(=O)Nc1ccc(S(=O)(=O)Nc2ccc(N3CCC(NC[C@H](O)COc4ccc(O)c5c4CCC(=O)N5)CC3)cc2)cc1 [Example 305, 4-{[(Hexylamino)carbonyl]amino}-N-{4-[4-({(2S)-2-hydroxy-3-[(8-hydroxy-2-oxo-1,2,3,4-tetrahydro-5-quinolinyl)oxy]propyl}amino)-1-piperidinyl]phenyl}benzenesulfonamide] | 1
CCCCS(=O)(=O)Nc1ccc(N2CCC(NC[C@H](O)COc3ccc(O)c4c3CCC(=O)N4)CC2)cc1 [Example 306, N-{4-[4-({(2S)-2-Hydroxy-3-[(8-hydroxy-2-oxo-1,2,3,4-tetrahydro-5-quinolinyl)oxy]-propyl}amino)-1-piperidinyl]phenyl}-1-butanesulfonamide] | 1.1
CC(=O)Nc1ccc(S(=O)(=O)Nc2ccc(N3CCC(NC[C@H](O)COc4ccc(O)c5c4CCC(=O)N5)CC3)cc2)cc1 [Example 307, N-[4-({4-[4-({(2S)-2-Hydroxy-3-[(8-hydroxy-2-oxo-1,2,3,4-tetrahydro-5-quinolin)oxy]propyl}amino)-1-piperidinyl]anilino}sulfonyl)phenyl]acetamide] | 1
COc1ccc(S(=O)(=O)Nc2ccc(N3CCC(NC[C@H](O)COc4ccc(O)c(NS(C)(=O)=O)c4)CC3)cc2)cc1OC [Example 308, N-(4-{4-[((2S)-2-Hydroxy-3-{4-hydroxy-3-[(methylsulfonyl)amino]phenoxy}propyl)-amino]-1-piperidinyl}phenyl)-4-dimethoxybenzenesulfonamide] | 1.4

Second part, the molecule after the results:

IA(β3) | Structure (SMILES)
1 | CCCCS(=O)(=O)Nc1ccc(N2CCC(NC[C@H](O)COc3ccc(O)c(NS(C)(=O)=O)c3)CC2)cc1 [Example 309, N-(4-{4-[((2S)-2-Hydroxy-3-{4-hydroxy-3-[(methylsulfonyl)amino]phenoxy}-propyl)amino]-1-piperidinyl}phenyl)-1-butanesulfonamide]
1 | CCCCCCNC(=O)Nc1ccc(S(=O)(=O)Nc2ccc(N3CCC(NC[C@H](O)COc4ccc(O)c(NS(C)(=O)=O)c4)CC3)cc2)cc1 [Example 310]
0.82 | CCCCCCNC(=O)Nc1ccc(S(=O)(=O)Nc2ccc(N3CCC(NC[C@H](O)c4cccc(Cl)c4)CC3)cc2)cc1 [Example 311, N-[4-(4-{[(2R)-2-(3-Chlorophenyl)-2-hydroxyethyl]amino-}-piperidinyl)phenyl]-4-{[(hexylamino)carbonyl]amino}benzenesulfonamide]
1.1 | CCOC(=O)Cc1ccc(S(=O)(=O)Nc2ccc(N3CCC(NC[C@H](O)COc4ccc(O)c(NS(C)(=O)=O)c4)CC3)cc2)cc1 [Example 312, Ethyl{4-[(4-}4-[((2S)-2hydroxy-3-{4-hydroxy-3-[(methylsulfonyl)amino]-phenoxy{propyl)amino]-1-piperidinyl}anilino)sulfonyl]phenyl}acetate]
1 | COC(=O)COc1ccc(S(=O)(=O)Nc2ccc(N3CCC(NC[C@H](O)c4ccc(O)c(NS(C)(=O)=O)c4)CC3)cc2)cc1 [Example 313, Methyl{4-[(4-{4-[((2R)-2-hydroxy-2-{4-hydroxy-3-[(methylsulfonyl)amino]-phenyl}ethyl)amino]-1piperidinyl}anilino)sulfonyl]phenoxy}acetate]
1.2 | CCCCS(=O)(=O)Nc1ccc(N2CCC(NC[C@H](O)COc3ccc(O)c(NS(=O)(=O)c4ccccc4)c3)CC2)cc1 [Example 315, N-[5-({(2S)-3-[(1-{4-[(Butylsulfonyl)amino]phenyl}-4-piperidinyl)amino]-2-hydroxypropyl}oxy)-2-hydroxyphenyl]benzenesulfonamide]
0.97 | CS(=O)(=O)Nc1cc([C@@H](O)CNC2CCN(c3ccc(NS(=O)(=O)c4ccc(C(=O)O)cc4)cc3)CC2)ccc1O [Example 317, 4-[(4-{4-[((2R)-2-Hydroxy-2-{4-hydroxy-3-[(methylsulfonyl)amino]phenyl}ethyl)amino]-1-piperidinyl}anilino)sulfonyl]benzoic acid]
1 | CCOC(=O)c1ccc(S(=O)(=O)Nc2ccc(N3CCC(NC[C@H](O)c4ccc(O)c(NS(C)(=O)=O)c4)CC3)cc2)cc1 [Example 318, Ethyl4-[(4-{4-[((2R)-2-hydroxy-2-{4-hydroxy-3-[(methylsulfonyl)amino]phenyl}ethyl)-amino]-1-piperidinyl}anilino)sulfonyl]benzoate]
0.79 | COC(=O)COc1ccc(S(=O)(=O)Nc2ccc(N3CCC(NC[C@H](O)c4ccc(Cl)c(NS(C)(=O)=O)c4)CC3)cc2)cc1 [Example 319, Methyl{4-[(4-{4-[((2R)-2-{4-chloro-3-[(methylsulfonyl)amino]phenyl}-2-hydroxyethyl)amino]-1-piperidinyl}anilino)sulfonyl]phenoxy}acetate]
0.87 | COC(=O)c1sccc1S(=O)(=O)Nc1ccc(N2CCC(NC[C@H](O)c3ccc(O)c(NS(C)(=O)=O)c3)CC2)cc1 [Example 320, Methyl3-[(4-{4-[((2R)-2-hydroxy-2-{4-hydroxy-3-[(methylsulfonyl)amino]-phenyl}ethyl)amino]-1-piperidinyl}anilino)sulfonyl]-2-thiophenecarboxylate]
1.05 | CS(=O)(=O)Nc1cc([C@@H](O)CNC2CCN(c3ccc(NS(=O)(=O)c4ccsc4C(=O)O)cc3)CC2)ccc1O [Example 321, 3-[(4-{4-[((2R)-2-Hydroxy-2-{4-hydroxy-3-[(methylsulfonyl)amino]phenyl}ethyl)amino]-1-piperidinyl}anilino)sulfonyl]-2-thiophenecarboxylic acid]
